Measured values from paper PMC13242511, “Disrupting Notch signalling by a small molecule inhibiting dihydroorotate dehydrogenase activity” (Scientific Reports, 2026).
pIC50: −log10 of the molar value. Values joined by “and” are separate entries in the source; they are usually repeats but may differ in a detail not shown here. Equal entries are not always repeated.

Key:
Type in all cases: cell-based
TALL-1 cells = experiment: Growth inhibition, metabolic activity (CellTiter-Glo); settings: Homo sapiens; TALL-1, six days; read-out: approximated IC50, growth (metabolic activity)
Description: (§1) We next investigated whether compounds A-E affected growth and viability of cell lines from T-cell acute lymphoblastic leukaemia (T-ALL) and breast cancer, two tumour types in which elevated Notch signalling has been implicated in tumorigenesis. […] When testing analogues of compounds B and C, five of the seven B analogues and one of the two C analogues produced dose–response curves and IC50s, which however were higher compared to the original hits (Supplemental Fig. 5A; IC50s are presented in Supplemental Table 6).
(§2) Compounds were spotted on white 384-well tissue culture plates (Greiner, cat #781080) using an Echo 525 Acoustic liquid handler (Labcyte). Cells were grown to 80% confluence, detached if required, counted and 20 µl containing 2000–4000 cells per well was then seeded in each well and cultivated for three (4,000 cells seeded) and six days (2,000 cells seeded). […] Luciferase activity (reading out metabolic activity) was determined using the CellTiter-Glo 2.0 kit (CTG, Promega, cat #G9242) following the manufacturer’s instructions and luminescence was measured on a SpectraMaxi3 or Varioscan plate reader (Molecular Devices, Thermofisher).

MDA-MB-231 cells = experiment: Immunocytochemistry of NOTCH1, nuclei and giant cell count; design: Average Size nuclei / AVG Average Size nuclei: unit not given here; settings: for fraction of cells with large nuclei / overall level of NOTCH1 (ICC) / AVG Giant cells/ total nucl (%) / AVG Average Size nuclei / Average Size nuclei / Count (nuclei per field) / Giant cells /field / Giant cells/ total nucl (%): MDA-MB-231, 2 µM; for fraction of cells with large nuclei / overall level of NOTCH1 (ICC): 24 h; for fraction of cells with large nuclei: compared to DMSO, Fig. 8D; for overall level of NOTCH1 (ICC): Fig. 8A; for Average Size nuclei / Count (nuclei per field) / Giant cells /field / Giant cells/ total nucl (%): single images; for cell morphology: overview in comparison to compound C, Supplemental Fig. 9
Method: 20,000 MDA-MB-231 cells were seeded on cover-slides (BD Bioscience), allowed to attach and treated with 2 µM compound for 24 h and 72 h upon reaching 80% confluence. For quantification of NOTCH1 signals and to monitor morphological changes immunocytochemistry staining to localize NOTCH1 was carried out as described above for C2C12 cells. Cellular morphology was visualized with Phalloidin (Thermofisher, cat # A22287), used at 1:2000 dilution and a NOTCH1 antibody used at 1:100 dilution (Cell signalling, cat #D6F11). Images were recorded using a Zeiss LSM 700 laser scanning microscope with a 40 × objective. Identical channel configuration and detector gain settings were used for quantification of fluorescence signals and a minimum of four images were recorded per condition. Secondary antibody control background signals were averaged and subtracted from each image and the same brightness and contrast adjustments were applied to all images before conducting histogram-based quantification of NOTCH1 signals. A 10 × objective was used for assessing morphological changes and a minimum of four and three images at 24 h and 72 h, respectively were recorded for quantification of nuclei count, size and number of giant cells. Images were processed using Fiji (ImageJ) software and objects were separated from background using Otsu thresholding until all nuclei were detectable. Nuclei objects were filled and nuclei particles were measured using size exclusion and circularity filter settings, 10-infinity (size) and 0,1–0,5 (circularity). Overlay images of nuclear stain and Phalloidin were used to manually count and annotate giant cells using Fiji’s cell counter.

NOTCH1 = experiment: Cycloheximide chase experiment (half-life of cleaved NOTCH1); design: key to NOTCH1 (TMICD), DMSO as reference: western blot band intensity normalised to beta-Actin, relative to DMSO; settings: for NOTCH1/ (TMICD) band intensity: 5 µM
Method: HEK293T Notch reporter cells (clone #A1-11) were grown to 80% confluence, detached and counted. 50,000 cells were then seeded in each well of a 24-well tissue culture plate (Sarstedt, cat # 83.3924), cultivated to approximately 85% confluence and treated with 5 µM of the respective compound and 50 µg/ml Cycloheximide (CHX) solution (Sigma-Aldrich, cat #C4859-1ML). Each well was then incubated with 500 µl of compound and CHX solution and compound and CHX solution were added after the indicated intervals to another well for a total time of eight hours. Next, medium was aspirated off and cells were lysed in RIPA buffer (Thermofisher, cat #89900) containing Protease and Phosphatase inhibitors (Thermofisher, cat #78442) for 30 min on ice. Lysates were thoroughly vortexed, centrifugated for 10 min at > 13,000×g and supernatant was transferred to a fresh cup and stored at -80 °C.
Cells were washed in ice-cold PBS and incubated for 30 min on ice with RIPA cell lysis buffer (Thermofisher, cat #89900) containing protease and phosphatase inhibitors (Thermofisher, cat #78442), scraped off and homogenized using a 25G syringe, and subsequently centrifugated for 10 min at > 13,000xg. […] After electrophoresis, gels were placed directly onto a TransBlot Turbo PVDF or nitrocellulose membrane (Bio-rad, cat #1704157 and cat #1704159) and transferred using the “HIGH MW” protocol (Bio-Rad). Subsequently, membranes were blocked for 1 h at room temperature using Clear Milk Blocking Buffer (ThermoFisher, cat #37587) supplemented with 0.1% Tween20 (Sigma-Aldrich, cat #P1379). Detection of antibody binding was performed by using Clarity Western ECL-Substrate (Bio-rad, cat #1705060S). Beta-Actin protein signals were used as a loading control. Western blot membranes were in some experiments stripped after development (indicated in the figure in each respective case) by washing the membranes twice for 10 min in PBS, followed by incubation in membranes in western blot stripping buffer (ThermoFisher, cat #21059) for 30 min at room temperature and gentle agitation. Stripped membranes were washed twice with PBS and incubated for 30 min in blocking buffer before incubation with primary antibody. A list of all antibodies used in this study is provided in Supplemental Table 6. Uncropped western blot images are provided in […]. Protein expression levels of western blot bands were quantified using Fiji (V.2.16) with beta-Actin signals for normalisation (Supplemental Table 8). Uncropped western blot images are provided in Supplemental Fig. 10.

MDA-MB-468 cells = experiment: Growth inhibition, metabolic activity (CellTiter-Glo); settings: Homo sapiens; MDA-MB-468, six days; read-out: approximated IC50, metabolic activity
Description: as §1, §2

[1] = timepoint 0 (hours after cycloheximide)
[2] = timepoint 1 (hours after cycloheximide)
[3] = timepoint 2 (hours after cycloheximide)
[4] = timepoint 4 (hours after cycloheximide)
[5] = timepoint 6 (hours after cycloheximide)
[6] = timepoint 8 (hours after cycloheximide)

| SMILES | pIC50 (TALL-1 cells) | fraction of cells with large nuclei (MDA-MB-231 cells) | overall level of NOTCH1 (ICC) (MDA-MB-231 cells) | AVG Giant cells/ total nucl (%) (MDA-MB-231 cells; 24h treatment, DMSO 1.4) | AVG Average Size nuclei (MDA-MB-231 cells; 24h treatment, DMSO 184.3) | AVG Giant cells/ total nucl (%) (MDA-MB-231 cells; 72h treatment, DMSO 0.7) | AVG Average Size nuclei (MDA-MB-231 cells; 72h treatment, DMSO 184.1) | cell morphology (MDA-MB-231 cells) | NOTCH1/ (TMICD) band intensity (NOTCH1; [1]) | NOTCH1 (TMICD) normalized to beta-Actin (used for plots) (NOTCH1; timepoint 0, 5 µM) | NOTCH1 (TMICD), DMSO as reference (NOTCH1; timepoint 0, 5 µM) | NOTCH1/ (TMICD) band intensity (NOTCH1; [2]) | NOTCH1 (TMICD) normalized to beta-Actin (used for plots) (NOTCH1; timepoint 1, 5 µM) | NOTCH1 (TMICD), DMSO as reference (NOTCH1; timepoint 1, 5 µM) | NOTCH1/ (TMICD) band intensity (NOTCH1; [3]) | NOTCH1 (TMICD) normalized to beta-Actin (used for plots) (NOTCH1; timepoint 2, 5 µM) | NOTCH1 (TMICD), DMSO as reference (NOTCH1; timepoint 2, 5 µM) | NOTCH1/ (TMICD) band intensity (NOTCH1; [4]) | NOTCH1 (TMICD) normalized to beta-Actin (used for plots) (NOTCH1; timepoint 4, 5 µM) | NOTCH1 (TMICD), DMSO as reference (NOTCH1; timepoint 4, 5 µM) | other results |
| --- | --- | --- | --- | --- | --- | --- | --- | --- | --- | --- | --- | --- | --- | --- | --- | --- | --- | --- | --- | --- | --- |
| CC(C)(C)c1ccc(Oc2ccc(N)cn2)cc1 [CB-103, reference compound] | 6.52 |  |  |  |  |  |  |  |  |  |  |  |  |  |  |  |  |  |  |  |  |
| CC(C)(C(=O)NCC(F)(F)C(F)(F)F)C(=O)N[C@@H]1C(=O)Nc2ccccc2-c2ccccc21 [RO4929097, reference compound] |  | smaller increase | trend towards reduced levels | 1.7 | 170.6 | 1.2 | 205.4 | moderate effect | 20583.6 | 1.3 | 1.0 | 14235.7 | 0.8 | 0.6 | 11993.7 | 0.6 | 0.5 | 14001.0 | 0.8 | 0.6 | Average Size nuclei (MDA-MB-231 cells; 24h treatment, listed as GSI): 168.5 and 151.9 and 180.3 and 181.9; Count (nuclei per field) (MDA-MB-231 cells; 24h treatment, listed as GSI): 1431.0 and 1167.0 and 1371.0 and 1390.0; Giant cells /field (MDA-MB-231 cells; 24h treatment, listed as GSI): 23.0 and 26.0 and 17.0 and 24.0; Giant cells/ total nucl (%) (MDA-MB-231 cells; 24h treatment, listed as GSI): 1.6% and 2.2% and 1.2% and 1.7%; Average Size nuclei (MDA-MB-231 cells; 72h treatment, listed as GSI): 177.5 and 237.7 and 201.1; Count (nuclei per field) (MDA-MB-231 cells; 72h treatment, listed as GSI): 508.0 and 335.0 and 447.0; Giant cells /field (MDA-MB-231 cells; 72h treatment, listed as GSI): 4.0 and 6.0 and 5.0; Giant cells/ total nucl (%) (MDA-MB-231 cells; 72h treatment, listed as GSI): 0.8% and 1.8% and 1.1%; protein stability of NOTCH1 (in words) (NOTCH1; cycloheximide chase, Supplemental Fig. 8B): enhanced protein stability; NOTCH1/ (TMICD) band intensity (NOTCH1; [5]): 9107.8; NOTCH1 (TMICD) normalized to beta-Actin (used for plots) (NOTCH1; timepoint 6, 5 µM): 0.8; NOTCH1 (TMICD), DMSO as reference (NOTCH1; timepoint 6, 5 µM): 0.6; NOTCH1/ (TMICD) band intensity (NOTCH1; [6]): 9737.6; NOTCH1 (TMICD) normalized to beta-Actin (used for plots) (NOTCH1; timepoint 8, 5 µM): 0.7; NOTCH1 (TMICD), DMSO as reference (NOTCH1; timepoint 8, 5 µM): 0.53 |
| Cc1ccc2[nH]c3c(c2c1)CCOC31CCN(Cc2ccccc2-c2ccccc2)CC1 [compound B] | 5.17 |  |  |  |  |  |  |  |  |  |  |  |  |  |  |  |  |  |  |  | pIC50 (MDA-MB-468 cells): 5.96 |
| COc1cccc(CNc2ccc(N3CCCCC3)cc2)c1OCc1cccs1 [compound C] |  | increased fraction | not affected | 2.4 | 211.1 | 3.8 | 267.6 | strongest effect | 11149.0 | 0.8 | 1.0 | 9563.6 | 0.7 | 0.9 | 5022.2 | 0.4 | 0.5 | 5169.6 | 0.347 | 0.442 | Average Size nuclei (MDA-MB-231 cells; 24h treatment): 215.8 and 220.5 and 221.4 and 186.7; Count (nuclei per field) (MDA-MB-231 cells; 24h treatment): 1118.0 and 1274.0 and 861.0 and 1213.0; Giant cells /field (MDA-MB-231 cells; 24h treatment): 26.0 and 28.0 and 22.0 and 30.0; Giant cells/ total nucl (%) (MDA-MB-231 cells; 24h treatment): 2.3% and 2.2% and 2.6% and 2.5%; Average Size nuclei (MDA-MB-231 cells; 72h treatment): 254.0 and 270.2 and 244.9 and 301.2; Count (nuclei per field) (MDA-MB-231 cells; 72h treatment): 251.0 and 246.0 and 215.0 and 208.0; Giant cells /field (MDA-MB-231 cells; 72h treatment): 9.0 and 8.0 and 10.0; Giant cells/ total nucl (%) (MDA-MB-231 cells; 72h treatment): 3.6% and 3.3% and 3.7% and 4.8%; NOTCH1/ (TMICD) band intensity (NOTCH1; [5]): 6218.3; NOTCH1 (TMICD) normalized to beta-Actin (used for plots) (NOTCH1; timepoint 6, 5 µM): 0.362; NOTCH1 (TMICD), DMSO as reference (NOTCH1; timepoint 6, 5 µM): 0.46; NOTCH1/ (TMICD) band intensity (NOTCH1; [6]): 4511.9; NOTCH1 (TMICD) normalized to beta-Actin (used for plots) (NOTCH1; timepoint 8, 5 µM): 0.277; NOTCH1 (TMICD), DMSO as reference (NOTCH1; timepoint 8, 5 µM): 0.352; pIC50 (MDA-MB-468 cells): 5.77 |
